Results on one compound are retold here after US20210161130A1, “COMPOSITIONS FOR ATTRACTING PESTS AND USES THEREOF” (DOMOBIOS, priority 2018, published 2021).

Assay type in all cases: in vivo
In assay [1] the test system is Tyrophagus putrescentiae. Nature of the assay: Two-choice bioassay (filter paper rectangles), attraction of mites. The method, then: (§1) A composition comprising menthone was prepared by diluting liquid menthone with a density of 0.894 (mixture of stereoisomers L-menthone and D-isomenthone, with 98% purity, from Alfa Aesar, Haverhill, USA) in water to obtain a concentration of 0.1 μl/mL (i.e., 10^−4 L/L), corresponding to a concentration of about 0.0894 mg/mL or a concentration of about 0.00894% (w/v). Said composition has a molar concentration of menthone of about 0.58 mM.
(§2) Compositions comprising menthone at different concentrations were prepared by serial dilutions in water of the composition comprising menthone at 10^−4 L/L (from 10^−4 L/L to 10^−8 L/L, i.e., from about 0.0894 mg/mL to about 8.94 ng/mL) and their capacity to attract acarids was tested.
(§3) A composition comprising peppermint oil (also known as essential oil of Mentha piperita), which itself comprises menthone, was prepared by diluting peppermint oil with a density of 0.898 g/mL (natural peppermint oil from Mentha piperita L., Sigma, St Louis, USA) in water to obtain a concentration of 0.1 μl/mL (i.e., 10^−4 L/L), corresponding to a concentration of about 0.0898 mg/mL or a concentration of about 0.00898% (w/v). Compositions comprising peppermint oil at different concentrations were prepared by serial dilutions in water of the composition comprising peppermint oil at 10^−4 L/L (from 10^−4 L/L to 10^−6 L/L, i.e., from about 0.0898 mg/mL to about 0.898 μg/mL) and their capacity to attract acarids was tested.
The experimental protocol was inspired by the quantitative choice bioassay run by Synder et al., in 1993. Said bioassay consisted of two rectangles of filter paper of equal dimensions, positioned so as to be parallel to each other and less than 2 cm apart in a petri dish with a 6 cm diameter. 10 μL microliters of the composition comprising menthone, either alone (i.e., isolated) or within peppermint oil, were loaded on one rectangle and 10 μL of solvent (i.e., water) were loaded on the other as a control. After the solvent evaporated, a small strip of filter paper was used to bridge the rectangles. A group of 30-40 mites was then transferred to the middle of the bridge and their movements were observed. The rectangle for which they exited the bridge was recorded. Each assay comprised two sets of rectangles of filter paper connected with a bridge, with the composition comprising menthone, either alone (i.e., isolated) or within peppermint oil, loaded on opposing rectangles in each set (e.g., rectangle on the left in the first set, and rectangle on the right in the second set). Data were submitted to Fisher analysis.
(§4) Statistical significance was assessed using a Fisher's exact test.

Assay [2] has as its system Dermatophagoides farinae. Nature of the assay: Two-choice bioassay (vegetable fiber support discs), attraction of mites. The method, then: as §1, §2, §3
(§5) Responses of Dermatophagoides spp. to compositions comprising menthone, either alone (i.e., isolated) or within peppermint oil, were tested in a two-choice bioassay as described in Otieno et al., 1985. Said bioassay comprised two support discs made of vegetable fiber (with a diameter of 1.7 cm), i.e., a test support and a control support, placed in a Petri dish (with a diameter of 6 cm) kept at 20-28° C. in the dark at 30% humidity. Compositions comprising menthone, either alone (i.e., isolated) or within peppermint oil, (50 μL or less) were applied via a syringe to the test support. The control support was loaded with water only. An appropriate number of mites were placed in the center of the dish, equidistant from the test support and the control support. The bioassay system was then left for 24 hr or less at 20-28° C. in the dark at 30% humidity before a count of the mites assembled on the test support and on the control support was made. Several replicates were run for each test.
as §4

Assay [3] concerns Dermatophagoides pteronyssinus. Described as above. As to the method: as §1, §2, §3, §5, §4
The test system of assay [4] is Dermatophagoides farinae. In words: Simulated use test, infested cushion covered with sprayed sheet. The note with it: menthone 10^−6 L/L, 6 sprays on sheet, 1 h, cushion infested with three mite species, N = 3. As to the method: (§6) A composition comprising menthone at a concentration of 10^−6 L/L was prepared by diluting 1 μL liquid menthone as described hereinabove (mixture of stereoisomers L-menthone and D-isomenthone, with 98% purity, from Alfa Aesar, Haverhill, USA) in 1 L of water. Hereafter, said composition is referred to as “compositions comprising menthone alone” or “compositions comprising menthone”.
(§7) A composition comprising peppermint oil at a concentration of 10^−5 L/L was prepared by diluting 10 μL peppermint oil (natural peppermint oil from Mentha piperita L., Sigma, St Louis, USA) as described hereinabove in 1 L of water. Hereafter, said composition is referred to as “composition comprising menthone within peppermint oil” or “composition comprising peppermint oil”.
(§8) In order to simulate real-life utilization of the composition for attracting pests of the invention, a common household furniture such as a cushion was infested with living mites and treated with a composition comprising menthone at a concentration of 10^−6 L/L (corresponding to a concentration of menthone of about 9×10^−4 mg/mL) or with a composition comprising peppermint oil at a concentration of 10^−5 L/L (corresponding to a concentration of peppermint oil of about 9×10^−3 mg/mL). As described in Japanese application JP2000336007 and in U.S. Pat. No. 6,415,545, the treatment consisted in laying a sheet on the infested household furniture and spraying the compositions to be tested over it. The number of attracted and unattracted mites was then counted to evaluate the efficacy of the tested composition. All the tests were run at 20-25° C. and 30-35% relative humidity, conditions normally found in households.
(§9) Brand new cushions (43×30×6 cm, Tom&Co) were infested with 400 Tyrophagus putrescentiae, 100 Dermatophagoides farinae and 100 Dermatophagoides pteronyssinus. The proportion of each species respected the average composition of natural mite populations that can be found in a pet basket: ⅔ of storage mites, ⅓ of house dust mites. Small pieces of dry dog food were spread over the cushions as a nourishment for mites. After the infestation, mites were allowed to settle down for 15 hours.
(§10) After 15 hours, a dark sheet was placed over the cushion to be treated. The size of the sheet was sufficient to cover the entire upper surface of the cushion (43×30 cm). The sheet was sprayed 6 times (total volume sprayed about 4 ml) with a composition comprising menthone, either alone (i.e., isolated) or within peppermint oil, or with water (control), keeping the bottle at a distance of about 30 cm from the sheet to be sprayed. A dry control was also used, corresponding to an untreated sheet, i.e., a sheet that was not sprayed. Sprays were evenly distributed in order to cover the totality of the sheet. The sheet was left in place for 1 h. 3 replicates were run with the composition comprising menthone, either alone (i.e., isolated) or within peppermint oil, and 3 replicates were run with the control.
(§11) In order to determine the number of mites within an infested place, the usual method is to vacuum the infested place (Wassenaar 1988). Each sheet was vacuumed for 2 minutes using a special filter (as described in the European patent application EP0630478) that retains the collected dust. The dust sample was then analyzed (see Step 4) in order to determine the number of mites attracted by the composition comprising menthone, either alone (i.e., isolated) or within peppermint oil. Similarly, after removal of the sheet, each cushion was vacuumed to determine the number of remaining mites (i.e., the number of mites that were not attracted by the composition comprising menthone, either alone (i.e., isolated) or within peppermint oil). The relative proportion of mites into the sheet and into the cushion determined the efficacy of the treatment (see Step 4). […]

Assay [5] relates to Dermatophagoides pteronyssinus. The assay is described as above. The note with it: menthone 10^−6 L/L, 6 sprays on sheet, 1 h, cushion infested with three mite species, N = 3. As to the method:
as §6, §7, §8, §9, §10, §11

A further assay deals with Total number of mites. The assay is described as above. As to the method: as §6, §7, §8, §9, §10, §11
Assay [6] concerns Tyrophagus putrescentiae. The assay is described as above. The settings on record: menthone 10^−6 L/L, 6 sprays on sheet, 1 h, cushion infested with three mite species, N = 3. The method, then: as §6, §7, §8, §9, §10, §11
[7] abbreviates: composition comprising menthone 10^−4 L/L in water vs water.
The mark [8] stands for this setting: composition comprising menthone 10^−5 L/L in water vs water.
[9] abbreviates: composition comprising menthone 10^−6 L/L in water vs water.
Where [10] appears, read: composition comprising menthone 10^−7 L/L in water vs water.
The mark [11] stands for this setting: composition comprising menthone 10^−8 L/L in water vs water.

As to `CC1CCC(C(C)C)C(=O)C1` (stereo not shown) [menthone], the Mean efficiency with Tyrophagus putrescentiae [1] (setting [7]) is reported as 50%; in the assay on Tyrophagus putrescentiae [1] (setting [8]), 47%; with Tyrophagus putrescentiae [1] (setting [9]), 57%; in the assay on Tyrophagus putrescentiae [1] (setting [10]), 53%; in the assay with Tyrophagus putrescentiae [1] (setting [11]), 49%; in the assay with Dermatophagoides farinae [2] (setting [7]), 41%. Further, the Mean efficiency is reported as 40% in the assay with Dermatophagoides farinae [2] (setting [8]); 62% with Dermatophagoides farinae [2] (setting [9]); 49% with Dermatophagoides farinae [2] (setting [10]); 51% in the assay with Dermatophagoides farinae [2] (setting [11]); 42% in assay [3] (setting [7]); 50% in assay [3] (setting [8]). Besides, the Mean efficiency worked out at 67% in assay [3] (setting [9]) and 42% in assay [3] (setting [10]). The “Efficacy (mites attracted out of the cushion)” value with Dermatophagoides farinae [4] is given as 47%; with Dermatophagoides farinae [4] (listed as Menthone), 47% (±6%); in assay [5] it was 44%; in assay [5] (listed as Menthone), 44%; in the assay with Total number of mites (menthone 10^−6 L/L, 6 sprays on sheet, 1 h, cushion infested with three mite species, N = 3) it was 54% (±5%); in the assay with Tyrophagus putrescentiae [6], 69%. Moreover, the “Efficacy (mites attracted out of the cushion)” value in the assay on Tyrophagus putrescentiae [6] (listed as Menthone) was 69% (±8%). Further, the “more mites attracted out of the infested cushion compared to the control” value in the assay with Total number of mites (menthone 10^−6 L/L vs water control, Fisher's exact test, p-value=0.0006) is given as 21%.
